These results are taken from PMC8467848 (Molecules, 2021).

Structures can show the parent of a compound that is named as a salt.

What is called melting point is the temperature, or range, at which the solid turns liquid. As usually defined, the Ki is the dissociation constant of the complex between target and ligand, obtained from inhibition or displacement.

For data set [1], the target named is T1, κ-opioid receptor (Mus musculus, UniProt P33534).
T1 construct: performed on mouse brain homogenates; from tissue; host or cells: mouse brain membranes / homogenates
The data set can be described thus: biochemical. Format: binding.

Data set [2] deals with T2, μ-opioid receptor (Mus musculus, UniProt P42866).
T2 construct: performed on mouse brain homogenates in the presence of ^3H-DAMGO for μ-receptor; from tissue; host or cells: mouse brain membranes / homogenates
The data set is described as follows: biochemical. The data set is classed as binding.

For data set [3], the target named is T3, δ-opioid receptor (Mus musculus, UniProt P32300).
T3 construct: performed on mouse brain homogenates; from tissue; host or cells: mouse brain membranes / homogenates
The data set is described as follows: biochemical. The data set is classed as binding.

T3 sequence (P32300 whole entry): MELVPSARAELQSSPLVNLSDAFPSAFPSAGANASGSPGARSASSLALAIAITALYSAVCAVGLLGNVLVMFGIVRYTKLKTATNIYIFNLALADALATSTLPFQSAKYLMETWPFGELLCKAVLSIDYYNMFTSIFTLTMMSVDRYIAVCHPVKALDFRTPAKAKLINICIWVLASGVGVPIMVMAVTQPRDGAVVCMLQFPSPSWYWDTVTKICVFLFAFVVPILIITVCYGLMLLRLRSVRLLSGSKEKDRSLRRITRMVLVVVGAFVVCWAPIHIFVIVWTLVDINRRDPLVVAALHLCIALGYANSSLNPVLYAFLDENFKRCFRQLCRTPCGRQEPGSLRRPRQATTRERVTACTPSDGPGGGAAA
T1 sequence (P33534 whole entry): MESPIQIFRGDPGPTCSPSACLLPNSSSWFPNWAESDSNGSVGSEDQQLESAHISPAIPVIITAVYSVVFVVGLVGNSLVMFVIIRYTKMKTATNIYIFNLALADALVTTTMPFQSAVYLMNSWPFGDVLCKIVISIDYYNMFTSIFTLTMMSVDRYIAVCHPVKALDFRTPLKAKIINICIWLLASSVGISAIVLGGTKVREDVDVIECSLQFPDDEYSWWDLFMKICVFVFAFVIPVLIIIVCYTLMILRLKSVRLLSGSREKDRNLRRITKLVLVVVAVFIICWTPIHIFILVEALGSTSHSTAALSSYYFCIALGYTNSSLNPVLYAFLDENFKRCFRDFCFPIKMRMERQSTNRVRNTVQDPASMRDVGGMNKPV
T2 sequence (P42866 whole entry): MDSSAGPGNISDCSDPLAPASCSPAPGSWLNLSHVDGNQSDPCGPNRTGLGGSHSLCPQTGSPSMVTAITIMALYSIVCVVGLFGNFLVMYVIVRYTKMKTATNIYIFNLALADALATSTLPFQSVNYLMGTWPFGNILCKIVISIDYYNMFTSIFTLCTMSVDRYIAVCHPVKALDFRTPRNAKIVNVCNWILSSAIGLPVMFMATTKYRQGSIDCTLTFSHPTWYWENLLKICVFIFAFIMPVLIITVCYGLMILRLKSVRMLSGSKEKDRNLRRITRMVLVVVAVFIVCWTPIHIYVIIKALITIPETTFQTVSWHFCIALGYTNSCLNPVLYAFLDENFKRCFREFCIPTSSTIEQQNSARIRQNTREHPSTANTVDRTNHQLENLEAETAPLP

Turning to `CCC(=O)N1C2CCC1C1CCC2N1CC=C1CCc2ccccc21` (as salt: hydrochloride), the melting point lay in the range of 132 to 134 °C.
Regarding `CCC(=O)N1C2CCC1C1CCC2N1CC=C1CCc2cc(F)ccc21` (as salt: hydrochloride), the melting point lay in the range of 181 to 183 °C.
On the same count and under the same terms, for `CCC(=O)N1C2CCC1C1CCC2N1CC=C1CCc2cc(Cl)ccc21` (as salt: hydrochloride) the value was 170 to 173 °C; for `CCC(=O)N1C2CCC1C1CCC2N1CC=C1CCc2cc(Br)ccc21` (as salt: hydrochloride), 167 to 170 °C.
As for `CCC(=O)N1C2CCC3C1CCC2N3CC=C1CCc2ccccc21` (as salt: hydrochloride), the melting point fell in the range of 167 to 170 °C.
Consider `CCC(=O)N1C2CCC3C1CCC2N3CC=C1CCc2cc(Cl)ccc21` (as salt: hydrochloride), for which the melting point is 179 to 181 °C.
The same measure, in the same setting: the value for `CCC(=O)N1C2CCC3C1CCC2N3CC=C1CCc2cc(Br)ccc21` (as salt: hydrochloride) was 177 to 179 °C; that for `CCC(=O)N1C2CCC3C1CCC2N3CC=C1CCc2cc(F)ccc21` (as salt: hydrochloride) [Compound 25, 2-Propionyl-7-[(E)-1-(2-(5-fluoro-2,3-dihydro-1H-inden-1-ylidene)ethyl]-2,7-diazatricyclo[4.2.0.0^3,8]decane] was 131 to 133 °C.
On the same count and under the same terms, the value for `CCC(=O)N1C2CCC1C1CCC2N1Cc1cc2ccccc2[nH]1` (as salt: hydrochloride) [Compound 53, 9-Propionyl-10-(1H-indol-2-ylmethyl)-9, 10-diazatricyclo[4.2.1.1^2.5]decane] was 106 °C.
Still for that read-out and setting: for `CCC(=O)N1C2CCC3C1CCC2N3Cc1cc2ccccc2[nH]1` (as salt: hydrochloride) [Compound 54, 2-Propionyl-7-(1H-indol-2-ylmethyl)-2,7-diazatricyclo[4.4.0.0^3.8]decane] the value was 54 °C; for `CCC(=O)N1C2CCC1C1CCC2N1Cc1cnc2ccccc2n1` (as salt: hydrochloride) [Compound 59, 9-Propionyl-10-(quinoxalyn-2-ylmethyl)-9,10-diazatricyclo[4.2.1.1^2,5]decane], 128 °C.
In the case of `CCC(=O)N1C2CCC1C1CCC2N1Cc1cc2ccccc2[nH]1` [Compound 53, 9-Propionyl-10-(1H-indol-2-ylmethyl)-9, 10-diazatricyclo[4.2.1.1^2.5]decane], in data set [1], the Ki is more than 1000 nM and the “affinity towards κ-receptors in words” value is “negligible affinity”. Further, in data set [2], the Ki was determined as 22 ± 3 nM and the “μ-affinity / binding in words” value was “nanomolar range”. Also, in data set [3], the inhibition constant Ki is more than 1000 nM and the “affinity towards δ-receptors in words” value is “negligible affinity”.
Take `CCC(=O)N1C2CCC3C1CCC2N3Cc1cc2ccccc2[nH]1` [Compound 54, 2-Propionyl-7-(1H-indol-2-ylmethyl)-2,7-diazatricyclo[4.4.0.0^3.8]decane]: the Ki in data set [1] is more than 1000 nM; in data set [2], 500 ± 45 nM; in data set [3], more than 1000 nM. The “fold lower μ-affinity compared to its isomer” value in data set [2] was 23 fold.
As for `CCC(=O)N1C2CCC3C1CCC2N3Cc1ccc2ccccc2n1` [Compound 58, 2-Propionyl-7-(quinolyn-2-ylmethyl)-2,7-diazatricyclo[4.2.0.0^3,8]decane], the Ki is more than 1000 nM in data set [1], 490 ± 46 nM in data set [2] and more than 1000 nM in data set [3].
Turning to `CCC(=O)N1C2CCC1C1CCC2N1Cc1cnc2ccccc2n1` [Compound 59, 9-Propionyl-10-(quinoxalyn-2-ylmethyl)-9,10-diazatricyclo[4.2.1.1^2,5]decane], the inhibitory constant (Ki) in data set [1], in data set [2] and in data set [3] was more than 1000 nM in each case.
